Results: paper PMC9397467 (Virulence, 2022)

Target: T1, Sortase A (SrtA) (Staphylococcus aureus, UniProt Q2FV99)
T1 sequence (Q2FV99 60-206 limits assumed): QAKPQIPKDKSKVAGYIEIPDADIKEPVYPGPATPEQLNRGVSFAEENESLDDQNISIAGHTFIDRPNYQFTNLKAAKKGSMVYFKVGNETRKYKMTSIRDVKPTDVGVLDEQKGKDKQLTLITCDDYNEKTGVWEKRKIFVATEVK
Assay: fluorescence quenching
Assay type: binding

Structure (SMILES): Oc1cc(O)c2cc(O)c(-c3ccc(O)c(O)c3)[o+]c2c1 [cyanidin chloride]
- Kd: 13.8 µM
